Laboratory results taken from ChEMBL document CHEMBL1671699, “Steady-state intrapulmonary pharmacokinetics and pharmacodynamics of posaconazole in lung transplant recipients” (Antimicrob Agents Chemother, 2010).

Assays:
[1] = Ratio of Cmax in lung transplant recipient epithelial lining fluid after 12 hrs to MIC90 for Aspergillus spp.; format: functional
[2] = Ratio of drug level in lung transplant human recipient alveolar cell to plasma at 400 mg, po every 12 hrs after 8 hrs by LS/MS analysis; format: ADME, organism-based, Pneumocyte; conditions: other tissue
[3] = T>MIC90 for Aspergillus spp. infected lung transplant recipient alveolar cell at 400 mg, po every 12 hrs by LS/MS analysis; format: functional, Pneumocyte
[4] = Drug level in lung transplant recipient plasma at 400 mg, po every 12 hrs after 12 hrs by LS/MS analysis; format: ADME, organism-based; conditions: human, read-out: Drug uptake
[5] = Ratio of drug level in lung transplant human recipient epithelial lining fluid to plasma at 400 mg, po every 12 hrs after 8 hrs by LS/MS analysis; format: ADME, organism-based
[6] = Drug level in lung transplant recipient alveolar cell at 400 mg, po every 12 hrs after 3 hrs by LS/MS analysis; format: ADME, organism-based, Pneumocyte; conditions: human, alveolar cells, read-out: Drug uptake
[7] = Ratio of drug level in lung transplant human recipient alveolar cell to plasma at 400 mg, po every 12 hrs after 12 hrs by LS/MS analysis; format: ADME, organism-based, Pneumocyte; conditions: other tissue
[8] = Ratio of AUC (0 to 12 hrs) in lung transplant recipient epithelial lining fluid to MIC90 for Aspergillus spp.; format: functional
[9] = Ratio of AUC (0 to 12 hrs) in lung transplant recipient plasma to MIC90 for Aspergillus spp.; format: functional
[10] = Cmin in lung transplant recipient plasma at 400 mg, po every 12 hrs after 12 hrs by LC/MS analysis; format: ADME, organism-based; conditions: human, read-out: Cmin
[11] = Ratio of drug level in lung transplant human recipient alveolar cell to plasma at 400 mg, po every 12 hrs after 24 hrs by LS/MS analysis; format: ADME, organism-based, Pneumocyte; conditions: other tissue
Plasma [12] = assay: AUC (0 to 24 hrs) in lung transplant recipient plasma at 400 mg, po every 12 hrs by LC/MS analysis; format: ADME, organism-based; set-up: dose 400 mg, time < 24 hr, route oral; conditions: human, in vivo
[13] = Tmax in lung transplant recipient plasma at 400 mg, po every 12 hrs after 12 hrs by LC/MS analysis; format: ADME, organism-based; conditions: human
[14] = Drug level in lung transplant recipient plasma at 400 mg, po every 12 hrs after 24 hrs by LS/MS analysis; format: ADME, organism-based; conditions: human, read-out: Drug uptake
[15] = Tmax in lung transplant recipient alveolar cell at 400 mg, po every 12 hrs after 12 hrs by LC/MS analysis; format: ADME, organism-based, Pneumocyte; conditions: human, alveolar cells
[16] = Ratio of Cmax in lung transplant recipient alveolar cell after 12 hrs to MIC90 for Aspergillus spp.; format: functional, Pneumocyte
[17] = Ratio of drug level in lung transplant human recipient epithelial lining fluid to plasma at 400 mg, po every 12 hrs after 5 hrs by LS/MS analysis; format: ADME, organism-based
Plasma [18] = assay: AUC (0 to 12 hrs) in lung transplant recipient plasma at 400 mg, po every 12 hrs by LC/MS analysis; format: ADME, organism-based; set-up: dose 400 mg, time < 12 hr, route oral; conditions: human, in vivo
[19] = Ratio of drug level in lung transplant human recipient alveolar cell to plasma at 400 mg, po every 12 hrs after 3 hrs by LS/MS analysis; format: ADME, organism-based, Pneumocyte; conditions: other tissue
[20] = AUC (0 to 12 hrs) in lung transplant recipient alveolar cell at 400 mg, po every 12 hrs by LC/MS analysis; format: ADME, organism-based, Pneumocyte; set-up: time < 12 hr, dose 400 mg, route oral; conditions: human, in vivo
[21] = Ratio of fAUC (0 to 12 hrs) in lung transplant recipient plasma to MIC90 for Aspergillus spp.; format: functional
[22] = Drug level in lung transplant recipient alveolar cell at 400 mg, po every 12 hrs after 12 hrs by LS/MS analysis; format: ADME, organism-based, Pneumocyte; conditions: human, alveolar cells, read-out: Drug uptake
[23] = Ratio of Cmax in lung transplant recipient plasma after 12 hrs to MIC90 for Aspergillus spp.; format: functional
[24] = T>MIC90 for Aspergillus spp. infected lung transplant recipient epithelial lining fluid at 400 mg, po every 12 hrs by LS/MS analysis; format: functional
[25] = Ratio of drug level in lung transplant human recipient epithelial lining fluid to plasma at 400 mg, po every 12 hrs after 24 hrs by LS/MS analysis; format: ADME, organism-based
[26] = AUC (0 to 12 hrs) in lung transplant recipient epithelial lining fluid at 400 mg, po every 12 hrs by LC/MS analysis; format: ADME, organism-based; set-up: time < 12 hr, dose 400 mg, route oral; conditions: human, in vivo
[27] = Ratio of AUC (0 to 24 hrs) in lung transplant recipient epithelial lining fluid to MIC90 for Aspergillus spp.; format: functional
[28] = Cmax in lung transplant recipient alveolar cell at 400 mg, po every 12 hrs after 12 hrs by LC/MS analysis; format: ADME, organism-based, Pneumocyte; set-up: dose 400 mg, route oral; conditions: human, alveolar cells
[29] = Cmax in lung transplant recipient epithelial lining fluid at 400 mg, po every 12 hrs after 12 hrs by LC/MS analysis; format: ADME, organism-based; set-up: dose 400 mg, route oral; conditions: human
[30] = Ratio of drug level in lung transplant human recipient alveolar cell to plasma at 400 mg, po every 12 hrs after 5 hrs by LS/MS analysis; format: ADME, organism-based, Pneumocyte; conditions: other tissue
[31] = Drug level in lung transplant recipient epithelial lining fluid at 400 mg, po every 12 hrs after 24 hrs by LS/MS analysis; format: ADME, organism-based; conditions: human, read-out: Drug uptake
[32] = Ratio of drug level in lung transplant human recipient epithelial lining fluid to plasma at 400 mg, po every 12 hrs after 12 hrs by LS/MS analysis; format: ADME, organism-based
[33] = Ratio of fCmax in lung transplant recipient plasma after 12 hrs to MIC90 for Aspergillus spp.; format: functional
[34] = Drug level in lung transplant recipient alveolar cell at 400 mg, po every 12 hrs after 24 hrs by LS/MS analysis; format: ADME, organism-based, Pneumocyte; conditions: human, alveolar cells, read-out: Drug uptake
[35] = Cmin in lung transplant recipient alveolar cell at 400 mg, po every 12 hrs after 12 hrs by LC/MS analysis; format: ADME, organism-based, Pneumocyte; conditions: human, alveolar cells, read-out: Cmin
[36] = Ratio of drug level in lung transplant human recipient epithelial lining fluid to plasma at 400 mg, po every 12 hrs after 3 hrs by LS/MS analysis; format: ADME, organism-based
[37] = Cmax in lung transplant recipient plasma at 400 mg, po every 12 hrs after 12 hrs by LC/MS analysis; format: ADME, organism-based; set-up: dose 400 mg, route oral; conditions: human
[38] = Ratio of AUC (0 to 12 hrs) in lung transplant recipient alveolar cell to MIC90 for Aspergillus spp.; format: functional, Pneumocyte
[39] = T>MIC90 for Aspergillus spp. infected lung transplant recipient plasma at 400 mg, po every 12 hrs by LS/MS analysis; format: functional
[40] = Drug level in lung transplant recipient epithelial lining fluid at 400 mg, po every 12 hrs after 3 hrs by LS/MS analysis; format: ADME, organism-based; conditions: human, read-out: Drug uptake
[41] = Drug level in lung transplant recipient alveolar cell at 400 mg, po every 12 hrs after 5 hrs by LS/MS analysis; format: ADME, organism-based, Pneumocyte; conditions: human, alveolar cells, read-out: Drug uptake
[42] = Tmax in lung transplant recipient epithelial lining fluid at 400 mg, po every 12 hrs after 12 hrs by LC/MS analysis; format: ADME, organism-based; conditions: human
[43] = AUC (0 to 24 hrs) in lung transplant recipient epithelial lining fluid at 400 mg, po every 12 hrs by LC/MS analysis; format: ADME, organism-based; set-up: time < 24 hr, dose 400 mg, route oral; conditions: human, in vivo
[44] = AUC (0 to 24 hrs) in lung transplant recipient alveolar cell at 400 mg, po every 12 hrs by LC/MS analysis; format: ADME, organism-based, Pneumocyte; set-up: time < 24 hr, dose 400 mg, route oral; conditions: human, in vivo
[45] = Drug level in lung transplant recipient epithelial lining fluid at 400 mg, po every 12 hrs after 12 hrs by LS/MS analysis; format: ADME, organism-based; conditions: human, read-out: Drug uptake
[46] = Ratio of fAUC (0 to 24 hrs) in lung transplant recipient plasma to MIC90 for Aspergillus spp.; format: functional
[47] = Protein binding in human plasma at 400 mg, po BID by LS/MS analysis; format: ADME, organism-based; conditions: read-out: PPB
[48] = Drug level in lung transplant recipient epithelial lining fluid at 400 mg, po every 12 hrs after 5 hrs by LS/MS analysis; format: ADME, organism-based; conditions: human, read-out: Drug uptake
[49] = Drug level in lung transplant recipient plasma at 400 mg, po every 12 hrs after 5 hrs by LS/MS analysis; format: ADME, organism-based; conditions: human, read-out: Drug uptake
[50] = Drug level in lung transplant recipient plasma at 400 mg, po every 12 hrs after 3 hrs by LS/MS analysis; format: ADME, organism-based; conditions: human, read-out: Drug uptake
[51] = Drug level in lung transplant recipient alveolar cell at 400 mg, po every 12 hrs after 8 hrs by LS/MS analysis; format: ADME, organism-based, Pneumocyte; conditions: human, alveolar cells, read-out: Drug uptake
[52] = Drug level in lung transplant recipient plasma at 400 mg, po every 12 hrs after 8 hrs by LS/MS analysis; format: ADME, organism-based; conditions: human, read-out: Drug uptake
[53] = Ratio of AUC (0 to 24 hrs) in lung transplant recipient plasma to MIC90 for Aspergillus spp.; format: functional
[54] = Ratio of AUC (0 to 24 hrs) in lung transplant recipient alveolar cell to MIC90 for Aspergillus spp.; format: functional, Pneumocyte
[55] = Drug level in lung transplant recipient epithelial lining fluid at 400 mg, po every 12 hrs after 8 hrs by LS/MS analysis; format: ADME, organism-based; conditions: human, read-out: Drug uptake

CC[C@@H]([C@H](C)O)n1ncn(-c2ccc(N3CCN(c4ccc(OC[C@@H]5CO[C@@](Cn6cncn6)(c6ccc(F)cc6F)C5)cc4)CC3)cc2)c1=O [POSACONAZOLE]
Ratio [1]: 2.6 | Ratio [2]: 63.6 | T>MIC90 [3]: 24 h | concentration at 12 h [4]: 930 ng/mL | Kp at 8 h [5]: 0.9 | concentration at 3 h [6]: 55400 ng/mL | Ratio [7]: 53.3 | Ratio [8]: 18.42 | Ratio [9]: 19.95 | concentration at 12 h [10]: 810 ng/mL | Ratio [11]: 56.4 | AUC (Plasma [12]): 21.98 µg/h/mL | Tmax [13]: 2.8 h | concentration at 24 h [14]: 740 ng/mL | Tmax [15]: 3.2 h | Ratio [16]: 110.8 | Kp at 5 h [17]: 0.57 | AUC (Plasma [18]): 10.99 µg/h/mL | Ratio [19]: 40.7 | AUC [20]: 530.2 µg/h/mL | Ratio [21]: 0.33 | concentration at 12 h [22]: 36800 ng/mL | Ratio [23]: 2.5 | T>MIC90 [24]: 24 h | Kp at 24 h [25]: 0.68 | AUC [26]: 11.21 µg/h/mL | Ratio [27]: 36.84 | Cmax [28]: 55400 ng/mL | Cmax [29]: 1300 ng/mL | Ratio [30]: 27.3 | concentration at 24 h [31]: 500 ng/mL | Kp at 12 h [32]: 1 | Ratio [33]: 0.04 | concentration at 24 h [34]: 49600 ng/mL | concentration at 12 h [35]: 31300 ng/mL | Kp at 3 h [36]: 0.94 | Cmax [37]: 1300 ng/mL | Ratio [38]: 1162 | T>MIC90 [39]: 24 h | concentration at 3 h [40]: 1100 ng/mL | concentration at 5 h [41]: 31300 ng/mL | Tmax [42]: 5.3 h | AUC [43]: 22.42 µg/h/mL | AUC [44]: 1060 µg/h/mL | concentration at 12 h [45]: 1200 ng/mL | Ratio [46]: 0.6 | fraction unbound [47]: < 0.02 | concentration at 5 h [48]: 1300 ng/mL | concentration at 5 h [49]: 1100 ng/mL | concentration at 3 h [50]: 1300 ng/mL | concentration at 8 h [51]: 54700 ng/mL | concentration at 8 h [52]: 810 ng/mL | Ratio [53]: 39.9 | Ratio [54]: 2324 | concentration at 8 h [55]: 1000 ng/mL
